Reference: paper PMC5531494, “Target specificity, in vivo pharmacokinetics, and efficacy of the putative STAT3 inhibitor LY5 in osteosarcoma, Ewing's sarcoma, and rhabdomyosarcoma” (PLoS ONE, 2017)
Like-named read-outs stand apart in the source and are kept apart here. Marks after values point to notes of the source that are not given here.

Columns and labels:
STAT3 = target: T1, STAT3 (Mus musculus, UniProt P42227); experiment: Western blot of pSTAT3 in K7M2 cells; type: cell-based, murine
T1 construct: endogenous in cells; host or cells: K7M2
T1 sequence (P42227 whole entry): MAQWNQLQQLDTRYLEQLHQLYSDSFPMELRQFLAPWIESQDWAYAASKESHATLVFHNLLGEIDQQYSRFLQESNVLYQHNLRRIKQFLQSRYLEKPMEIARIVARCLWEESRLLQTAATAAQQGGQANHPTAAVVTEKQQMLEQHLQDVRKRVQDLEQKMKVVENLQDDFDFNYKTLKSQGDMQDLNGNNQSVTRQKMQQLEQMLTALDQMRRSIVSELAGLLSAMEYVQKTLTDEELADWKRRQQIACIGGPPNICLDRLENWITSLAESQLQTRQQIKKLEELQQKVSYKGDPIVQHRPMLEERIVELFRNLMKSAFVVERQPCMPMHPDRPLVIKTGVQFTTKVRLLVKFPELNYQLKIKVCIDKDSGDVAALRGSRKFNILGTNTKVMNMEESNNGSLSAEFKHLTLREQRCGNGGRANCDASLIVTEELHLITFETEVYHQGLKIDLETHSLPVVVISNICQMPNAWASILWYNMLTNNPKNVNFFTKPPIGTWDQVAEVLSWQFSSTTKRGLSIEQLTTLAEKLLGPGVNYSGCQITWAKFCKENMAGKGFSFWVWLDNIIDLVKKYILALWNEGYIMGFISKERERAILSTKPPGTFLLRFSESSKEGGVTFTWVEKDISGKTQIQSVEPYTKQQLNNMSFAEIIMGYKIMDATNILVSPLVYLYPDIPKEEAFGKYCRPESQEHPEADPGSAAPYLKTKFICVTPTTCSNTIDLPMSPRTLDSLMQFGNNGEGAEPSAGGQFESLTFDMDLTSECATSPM
Procedure: Murine K7M2 and human MG63.3 OS cells were treated with increasing concentrations of LY5 for 2 hrs or 7 hrs. Western blotting was performed for pSTAT3 and STAT3 as indicated above to confirm inhibition of STAT3 phosphorylation in the cell lines prior to initiation of the PuMA assay. In addition, a sulforhodamine B colorimetric assay was performed to assess the cytotoxicity of LY5 in K7M2 and MG63.3 cells as previously described.
MG63.3 and K7M2 cell lines were exposed to increasing concentrations of LY5 to determine the IC50 (A). Western blot analysis was performed to determine the dose and duration of LY5 exposure required to inhibit STAT3 phosphorylation (B-C). Serial imaging of fluorescently labeled MG63.3 and K7M2 cells was performed in ex vivo LY5 treated lung sections (D). Metastatic burden was quantified by evaluation of the percent tumor burden (mean normalized fluorescent area). Data are reported as the mean ± standard deviation. In MG 63.3 experiment, p < 0.0001 Kruskal-Wallis test, p < 0.05 10 μM vs control at days 7, 14, and 21, 10 μM vs 1 μM at days 7, 14, and 21, 50 μM vs control at days 7, 14, and 21, and 50 μM vs 10 μM at days 7, 14, and 21 post-test Dunn. In K7M2 experiment, p < 0.0001 Kruskal-Wallis test, p < 0.05 10 μM vs control at days 14 and 21, 10 μM vs 0.1 μM at days 14 and 21, and 10 μM vs 1 μM at days 14 and 21, post-test Dunn.

[1] = Plasma PK profile in mice; type: in vivo; settings: ICR, mouse; for AUC(0-inf): read-out: AUC inf-obs; for bioavailability: read-out: F (bioavailability)
Procedure: (§1) Single-dose toxicity studies in mice were performed to identify the maximum tolerated dose of LY5. Additionally, 30 ICR mice (Harlan Laboratories, Indianapolis, IN) were divided into 3 groups to be dosed with 5 mg/kg LY5 (2 mg/ml) by oral (PO), intraperitoneal (IP) or intravenous (IV) routes to establish oral bioavailability. Animals were euthanized and blood was collected at allocated time points (5, 10, 20, 30 and 60 minutes, 2, 4, 6, 8 and 24 hrs) after LY5 administration, plasma was separated by centrifugation and frozen immediately on dry ice. Samples were stored at -80° C prior to analysis.
(§2) The liquid chromatography-mass spectrometry system utilized for these analyses consisted of a Dionex Ultimate 3000 RSLCnano High Performance Liquid Chromatography system and a Thermo Finnigan Quantum Ultras EMR mass spectrometer with an electrospray ionization source. Positive ionization mode was used for both LY5 and the internal standard, hesperetin. Plasma samples were collected and analyzed by the OSU James Comprehensive Cancer Center Pharmacoanalytical Shared Resource. Pharsight Phoenix WinNonlin software using non-compartmental analysis was used to generate PK parameters including maximum plasma concentration (Cmax), amount of time that drug is present at Cmax (Tmax), and total area under the curve (AUC). AUC all and AUC last were calculated by linear trapezoidal method of concentration-time curve up to the last measured point. AUC inf-obs was calculated by log-linear extrapolation of the terminal phase beyond the last collection time. Bioavailability (F) was calculated for IP and PO administration routes. Plasma stability and liver microsomal stability of LY5 were also assessed through this shared resource.

[2] = system: 96 human protein or lipid kinases; experiment: KINOMESCAN binding profile
Procedure: To determine the specificity of STAT blockade, we asked whether LY5 affected the phosphorylation of other family members including STAT1, STAT2, STAT4, and STAT6 [30–32]. […] To further define any potential off-target effects, we profiled the direct (steric) or indirect (allosteric) binding of LY5 to the binding sites of 96 human protein or lipid kinases (KINOMESCAN, www.kinomescan.com).
Supplementary file pone.0181885.s001.pdf: S1 Fig Kinomescan results for LY5. […] At 5 μM LY5 (B), only interaction with PLK3 was identified, mapped S-score (35) = 0.01. (PDF) Click here for additional data file.

[3] = Toxicity / tolerability in mice; type: in vivo
Procedure: as §1

Rh36 = experiment: Subcutaneous xenograft study; type: in vivo, mice; settings: Rh36, 10 mg/kg daily for 28 days
Procedure: (§3) C.B-17SC scid^-/- female mice (Taconic Farms, Germantown NY), were used to propagate subcutaneously implanted tumors. All mice were maintained under barrier conditions and experiments were conducted using protocols and conditions approved by the institutional animal care and use committee at University of Texas Health Science Center at San Antonio. Ten mice were used in each control or treatment group. Tumor volumes (cm^3) were determined and responses were determined using three activity measures as previously described.
(§4) The data were analyzed by using GraphPad Prism software (GraphPad Software, Inc., San Diego, CA). Data are presented as mean ± standard deviation. Data were analyzed by one-way analysis of variance (ANOVA), and Tukey’s post-test was used to assess differences between groups. Differences were considered statistically significant at p < 0.05. For in vivo xenograft models, an event was defined as four times the tumor volume at baseline similar to the PPTP criteria. The probabilities of time-to-event among groups were compared using log-rank test. The anti-tumor efficacy of LY5 was analyzed by using the statistical pipeline developed in PPTP [27].

Rh10 = experiment: Subcutaneous xenograft study; type: in vivo, mice; settings: Rh10, 10 mg/kg daily for five days for four consecutive weeks
Procedure: as §3, §4

OS-17 = experiment: Subcutaneous xenograft study; type: in vivo, mice; settings: OS-17, 10 mg/kg daily for 28 days
Procedure: as §3, §4

[4] = Liver microsomal stability; type: in vitro ADME, canine; settings: compared to mice; data not shown
From the text: as §2

## NS(=O)(=O)c1cccc2c1C(=O)C=C(Nc1cccnc1)C2=O [LY5, 5,8-dioxo-6-(pyridin-3-ylamino)-5,8-dihydronaphthalene-1-sulfonamide]
STAT3; K7M2
  concentration for complete inhibition of STAT3 in vitro: 10 µM
STAT3; K7M2, 1 μM LY5
  exposure time for effective inhibition of STAT3 phosphorylation: 4 h
STAT3; K7M2, 2 hrs treatment
  concentration that decreased STAT3 phosphorylation: 1 µM
[1]; 5 mg/kg IP
  AUC: 0.717 µM·h
  Cmax: 545 nM
  Tmax: 4.98 min
  AUC(0-inf): 0.794 µM·h
  bioavailability: 69.5%
[1]; 5 mg/kg IV
  AUC: 1.14 µM·h
  Cmax: 1660 nM
  Tmax: 4.98 min
  AUC(0-inf): 1.14 µM·h
[1]; 5 mg/kg PO
  AUC: 0.784 µM·h
  Cmax: 509 nM
  Tmax: 30 min
  AUC(0-inf): 0.898 µM·h
  bioavailability: 78.6%
[2]; 1 μM LY5
  binding to any of 96 kinases: no binding
  mapped S-score (35): 0
[2]; 5 μM LY5
  mapped S-score (35): 0.01
[3]
  tolerable dosing: 40 mg/kg BID
[3]; doses received via IV, oral, or IP routes
  toxicity: No toxicity was noted
Rh36
  Event-free survival (Treatment/Control): 0.94
  Group Response: PD1 (Progressive disease 1, <50% tumor growth inhibition (TGI))
  Median day to event: 16.5 days
  Survival (%): 100%
Rh10
  Event-free survival (Treatment/Control): 1.11
  Group Response: PD1^e (Progressive disease 1, <50% tumor growth inhibition (TGI))
  Median day to event: 18.7 days
  Survival (%): 100%
OS-17
  Event-free survival (Treatment/Control): 1.15
  Group Response: PD1 (Progressive disease 1, <50% tumor growth inhibition (TGI))
  Median day to event: 19.7 days
  Survival (%): 90%
[4]
  stability when incubated with canine liver microsomes: increased stability
